The values that follow come from patent US6548553B2, “Styryl sulfone anticancer agents” (Temple University-of the Commonwealth System of Higher …, priority 1997, dated 2003).

The term GI50 denotes the concentration giving 50% growth inhibition.

One series has as its system BT20. Put plainly: GI50 growth inhibition, trypan blue cell count. Type of series: cell-based, human. The note with it: breast, estrogen receptor negative, 96 hours after addition. On the procedure:
(§1) The human carcinoma cell lines listed in Table 5 below were purchased from ATCC and grown in an appropriate growth medium containing 10% fetal bovine serum (FBS) and antibiotics. The cells were plated at a cell density of 1.0×10^5 cells per […] in 6-well dishes. The cells were treated with various concentrations of (E)-fluorostyryl-4-bromobenzylsulfone 24 hours after plating in a total volume of 1 ml of medium using dimethylsulfoxide (DMSO) as a solvent for the compound. Control cells were treated with DMSO alone. The total number of viable cells was determined 96 hours after the addition of the compound by counting the cells in each well using a hemacytometer after trypan blue staining (viable cells exclude the stain). The counts were done in duplicate and the average was graphed in FIG. 8 as a percentage of the non-treated control group.

The test system of another series is DLD-1. Put plainly: GI50 growth inhibition, trypan blue cell count. Type of series: cell-based, human. The note with it: cob-rectal, 96 hours after addition. On the procedure:
as §1

The next series has as its system DU145. Put plainly: GI50 growth inhibition, trypan blue cell count. The note with it: prostate, androgen receptor negative, 96 hours after addition. Type of series: cell-based, human. On the procedure:
as §1

In a further series the test system is H157. Put plainly: GI50 growth inhibition, trypan blue cell count. Type of series: cell-based, human. The note with it: lung, non-small cell, 96 hours after addition. On the procedure: as §1
A further series relates to MIA-PaCa-2. Put plainly: GI50 growth inhibition, trypan blue cell count. It counts as cell-based, human. The note with it: pancreatic, 96 hours after addition. On the procedure: as §1
The next series relates to U87. Put plainly: GI50 growth inhibition, trypan blue cell count. Type of series: cell-based, human. The note with it: glioblastoma, 96 hours after addition. On the procedure: as §1
Another series deals with LnCaP and MCF-7 cells. Put plainly: Trypan blue exclusion viability assay, Tables 2-4. It counts as cell-based. The note with it: 5.0 μM compound, 48 hours, read-out: % viable LnCaP and MCF-7 cells. On the procedure: (§2) The effect of the styryl sulfones on the growth of normal and tumor cells of breast and prostate was examine utilizing four cell lines, NIH3T3, MCF-7, BT-20 and LnCap. NIH/3T3 cells represent normal fibroblasts while LnCap is an androgen-dependent prostate tumor cell line. MCF-7 is an estrogen-responsive breast tumor cell line, while BT-20 is an estrogen-unresponsive breast tumor cell line. MCF-7 and BT-20 were grown in Dulbecco's modified Eagle's medium (DMEM) containing 10% fetal bovine serum supplemented with penicillin and streptomycin. LnCaP were cultured in RPMI with 10% fetal bovine serum containing penicillin and streptomycin. NIH3T3 cells were grown in DMEM containing 10% calf serum supplemented with penicillin and streptomycin. All cell cultures were maintained at 37° C. in a humidified atmosphere of 5% CO2.
Cells were treated with test compound at 2.5 μM or 5.0 μM concentration and cell viability was determined after 48 hours by the Trypan blue exclusion method. The compounds identified in Tables 2, 3 and 4 inhibited cell growth and induced cell death, to varying degrees. The tables list the percent viable LnCap and MCF-7 cells treated with 5.0 μM compound.

A short description of series [1]: Trypan blue exclusion viability assay, normal fibroblasts. It counts as cell-based. Set-up: viability at 48 h: dose or concentration left out as unconfirmed. The note with it: mouse, NIH3T3 cells (normal fibroblasts); for viability at 48 h: 48 hours incubation, read-out: viable NIH3T3 cells. On the procedure: as §2
(§3) The compounds identified in Tables 2, 3 and 4 inhibited cell growth and induced cell death, to varying degrees. The tables list the percent viable LnCap and MCF-7 cells treated with 5.0 μM compound.
(§4) The percentage of living cells was determined by Trypan blue exclusion. The control cells were treated with DMSO to determine the effect of solvent on cells. […] Under these conditions, only 2-3% of NIH3T3 cells were non-viable at both the concentrations. […] After 48 hours incubation, 60-75% of the LnCaP, BT-20 and MCF-7 cells were dead at […] FRI-20 concentration, whereas more than 90% of NIH3T3 cells were viable (FIG. 2A).

The next series relates to SK-MEL-28. Put plainly: GI50 growth inhibition, trypan blue cell count. The note with it: Homo sapiens, melanoma, 96 hours after addition. Type of series: cell-based. The method, then: as §1
Series [2] deals with LnCaP, BT-20 and MCF-7 cells. Put plainly: Trypan blue exclusion viability/proliferation assay (dose and time course). It counts as cell-based. The note with it: 2.5 mM (FIG. 1A) and 5.0 mM (FIG. 1B), 48 hours of treatment.
Series [3] deals with LnCaP, BT-20 and MCF-7 cells. The description is as above. It counts as cell-based. The method, then: as §2, §3
as §4, with “NIH3T3, MCF-7, BT-20 and LnCaP cells were treated with FRI-20 dissolved in DMSO to concentrations of 250 nM, 500 nM, 1 μM, 2.5 μM and 5 μM and examined for their proliferation and viability after 48 hours (FIG. 2A). The percentage” for “The percentage”
NIH/3T3, MCF-7, BT-20 and LnCap were treated with FRI-20 at 2.5 μM and the number of viable cells was determined at 12, 24, 48 and 72 hours by Trypan blue exclusion.

For another series, the system named is DU145 cells. Put plainly: Comparison with cisplatin, Trypan blue viability after 72 hours. It counts as cell-based. The note with it: DU145, 72 hours, Trypan blue exclusion. On the procedure:
(§5) The killing effect of FR-20 on androgen-sensitive (LnCaP) and androgen insensitive (DU145) prostate tumor cells was compared to the effect of cisplatin (cis-diamminedichloroplatinum II), a widely used anti-prostate cancer agent. The cells were grown as in Example 26. FRI-20 or cisplatin was dissolved in DMSO and added to the cells at various concentrations. Viability was determined after 72 hours by the Trypan blue exclusion method. The concentration of FRI-20 required to completely kill LnCaP and DU145 cells was 2.5 μM and 5.0 μM, respectively. Under identical conditions, complete killing of LnCaP and DU145 cells by cisplatin required 25 μM and 15 μM concentrations, respectively.

For a further series, the system named is LnCaP cells. The description is as above. Type of series: cell-based. The note with it: LnCaP, 72 hours, Trypan blue exclusion. On the procedure:
as §5

On to `O=S(=O)(/C=C/c1ccc(F)cc1Cl)Cc1ccc(Cl)cc1` [Example 36, E-(2)-chloro-4-fluorostyryl-4-chlorobenzylsulfone], for which the GI50 came to 900 nM in the series on BT20; 800 nM in the series on DLD-1; 2000 nM in the series with DU145; 1500 nM in the series on H157; 1000 nM in the series with MIA-PaCa-2; 1800 nM in the series with U87.
With `O=S(=O)(/C=C/c1ccc(F)cc1)Cc1ccc(Br)cc1` [Example 15, E-4-fluorostyryl 4-bromobenzyl Sulfone], the viability at 5 µM in the series with LnCaP and MCF-7 cells stood at 7%. Further, the viability at 48 h, 5 µM in series [1] was above 80%. The viability at 48 h in series [1] is above 80%. For the same compound, the GI50 was 1000 to 2000 nM in the series with BT20 (Homo sapiens, BT-20); below 1000 nM in the series on DLD-1 (Homo sapiens, DLD-1); 2500 nM in the series on DU145 (Homo sapiens, DU-145); below 1000 nM in the series on H157 (Homo sapiens, NCI-H157); below 1000 nM with MIA-PaCa-2 (Homo sapiens, MIA PaCa-2); 1000 to 2000 nM with U87 (Homo sapiens, U-87 MG). In addition, the GI50 in the series on SK-MEL-28 fell in the range of 1000 to 2000 nM. In addition, in series [2], the “inhibition of growth and induction of death of LnCaP, BT-20 and MCF-7 cells” value (from here on “inhibition … BT-20 and MCF-7 cells”) was “substantially inhibit the growth and induce the death”.
Take `O=S(=O)(/C=C/c1ccc(Cl)cc1)Cc1ccc(Cl)cc1` [Example 12, E-4-chlorostyryl 4-chlorobenzyl Sulfone]: in the series with LnCaP and MCF-7 cells, the viability at 5 µM worked out at 49%. Moreover, in [1], the viability at 48 h, 5 µM is above 80% and the viability at 48 h is above 80%. Besides, in [2], the “inhibition … BT-20 and MCF-7 cells” value was “substantially inhibit the growth and induce the death”.
On to `O=S(=O)(/C=C/c1ccc(F)cc1F)Cc1ccc(F)cc1` [Example 14, E-2,4-difluorostyryl 4-fluorobenzyl Sulfone], for which, in the series with LnCaP and MCF-7 cells, the viability at 5 µM was found to be 56%. In series [1], the viability at 48 h, 5 µM was above 80% and the viability at 48 h is above 80%. Further, the “inhibition … BT-20 and MCF-7 cells” value in series [2] was “substantially inhibit the growth and induce the death”.
Take `O=S(=O)(/C=C/c1ccc(Cl)cc1)Cc1ccc(Br)cc1` [Example 18, E-4-chlorostyryl 4-bromobenzyl Sulfone]: the viability at 5 µM with LnCaP and MCF-7 cells amounted to 7%. The “activity (growth inhibition and cell death)” value in [3] is on record as “highly active”.
Taken in the same sequence, the figures for `O=S(=O)(/C=C/c1ccc(Br)cc1)Cc1ccc(Cl)cc1` [Example 19, E-4-bromostyryl 4-chlorobenzyl Sulfone] were 20% and “highly active”.
Take `O=S(=O)(/C=C/c1ccc(Br)cc1)Cc1ccc(F)cc1` [Example 17, E-4-bromostyryl 4-fluorobenzyl Sulfone]: the viability at 5 µM in the series on LnCaP and MCF-7 cells worked out at 42%. In addition, in series [1], the viability at 48 h, 5 µM was above 80% and the viability at 48 h is above 80%. Further, the “inhibition … BT-20 and MCF-7 cells” value in series [2] was “substantially inhibit the growth and induce the death”.
Turning to `N.N.[Cl][Pt][Cl]` [cisplatin, cis-diamminedichloroplatinum II, reference compound], the “concentration required to completely kill cells” value in the series on DU145 cells came to 15 µM; in the series on LnCaP cells, 25 µM.
